Seven compounds from patent US4302448A, “Secretin preparations with intensified and protracted action, process for their manufacture, their use as well as dihydroxybenzoyl-L-tyrosine” (Hoechst Aktiengesellschaft, priority 1979, dated 1981) can be followed below.

Assay type in all cases: in vivo
One test concerns pancreatic juice. As to the kind of experiment: Pancreatic juice production in rats after rectal administration of secretin suppository with or without depot body. Here is the method:
The intensified effect of secretin in the form of rectally administrable preparations due to the depot bodies used according to the invention becomes evident from the drawing. In a test carried out on 8 rats each weighing 0.5 kg, 100 μg of secretin in a suppository of a weight of 73 mg cause the production of 92 μl of pancreatic juice (curve 1). With the addition of 25 mg of 3,5-dihydroxybenzoyl-L-tyrosine the volume of pancreatic juice rose to 1778 μl (curve 2). This corresponds to an increase of the effect to about 20 times its original value. […] In the present case the secretin dose has been chosen very high in order to obtain a measurable volume also without additive.
With a non-maximum stimulation in the normal dose range (about half the dose), the increase of the effect is about 50-fold.

In test [1] the test system is pancreatic juice secretion. As to the kind of experiment: Biological effect of rectally administered secretin measured via pancreatic juice secretion, compared with subcutaneous injection. Particulars: secretin in suppositories or rectal capsules without depot body. The procedure:
Many medicaments may be incorporated in suppositories and administered rectally. They are sufficiently well absorbed in this form. […] For example, if secretin is administered by this route, the biological effect which is measured via pancreatic juice secretion is only about 1% of the effect obtained with subcutaneous injection.

The subject of test [2] is Pancreatic juice secretion of the rat. As to the kind of experiment: Pancreatic juice secretion of the rat after subcutaneous administration of secretin with depot bodies. The following applies: rat, subcutaneous, 5 CU/kg secretin + 10 mg depot body/animal; for Δ% vs. control (percentage by which the pancreatic secretion is above the basal secretion after 5 hours): control=100%, measure of depot effect; for Rel. Intensity of effect over 5 hours (total pancreatic juice secretion over 5 hours as compared with control): control (0.9% of NaCl)=1. Here is the method: Secretin preparations for subcutaneous application which contained the depot bodies specified in the following Table were tested in animal experiments. In the experimental procedure chosen, 5 to 8 male rats weighing 300 to 500 g each are administered subcutaneously 5 CU/kg of secretin (CU means clinical unit) and 10 mg of the depot body to be tested each in aqueous solution or suspension.
The animals remain without food for 18 hours prior to the test, but they are given water ad libitum. Under urethane anaesthesia (5 ml/kg i.m. of 25% urethane) the abdomen is opened by median section after tracheotomy, and the pylorus is ligated. The ductus choledochus is tied off in its proximal part near the porta hepatis, and the bile is led into the duodenum via a polyethylene tube of a diameter of […]. A cannula or catheter is inserted into the distal part of the bile duct, into which the numerous pancreatic ducts open, immediately before it opens into the duodenum, and the volume of the secretion running off is measured in 60 minute intervals. Following a preliminary run of 60 minutes the preparations are administered.
L means the compound known from literature and characterized by the melting point, optionally UV, IR or NMR. A to C relate to the preparation according to Example 1, process A to C. These compounds were characterized by ultimate analysis. The third column indicates the percentage by which the pancreatic secretion is above the basal secretion after 5 hours (calculated on the control=100%). This value is a measure for the depot effect of the depot body tested. Column 4 indicates the intensification of the secretin effect, with the total pancreatic juice secretion having been given over 5 hours as compared with the control (0.9% of NaCl)=1.

Where [3] appears, read: rats, rectal, 100 μg secretin + 25 mg depot body.

As for secretin [reference compound], the “production of pancreatic juice” value in the test on pancreatic juice (8 rats of 0.5 kg, rectal, 100 μg secretin in 73 mg suppository, no additive (curve 1)) was determined as 92 µL. Moreover, the “biological effect of rectal administration relative to effect obtained with subcutaneous injection” value in test [1] is “about 1%”.

For `O=C(N[C@@H](Cc1ccc(O)cc1)C(=O)O)c1cc(O)cc(O)c1` [3,5-Dihydroxybenzoyl-L-tyrosine], in test [2], the “Δ% vs. control (percentage by which the pancreatic secretion is above the basal secretion after 5 hours)” value is on record as 76% and the “Rel. Intensity of effect over 5 hours (total pancreatic juice secretion over 5 hours as compared with control)” value came to 9.2. Besides, the “volume of pancreatic juice” value with pancreatic juice (8 rats of 0.5 kg, rectal, 100 μg secretin suppository with addition of 25 mg depot body (curve 2)) worked out at 1778 µL. Further, the “increase in efficacy, rectal versus subcutaneous application (in words)” value in the test with pancreatic juice (comparison of routes) is “greater increase in efficacy when applied rectally than with subcutaneous application”. Further, in the test with pancreatic juice (setting [3]), the “increase of the effect relative to original value (secretin suppository without additive)” value is on record as “about 20 times” and the “protracted action (in words)” value is “a protracted action can also be observed”. Besides, the “increase of the effect” value with pancreatic juice (rectal, non-maximum stimulation in the normal dose range (about half the dose)) is “about 50 fold”.

As to `O=S(=O)([O-])c1ccc(O)cc1.[Na+]` [4-Hydroxybenzene-sulfonic acid-Na], in test [2], the “Δ% vs. control (percentage by which the pancreatic secretion is above the basal secretion after 5 hours)” value was determined as 18% and the “Rel. Intensity of effect over 5 hours (total pancreatic juice secretion over 5 hours as compared with control)” value is on record as 2.7.

As to Bis-(2-hydroxybenzoyl)-diaminoethane, in test [2], the “Δ% vs. control (percentage by which the pancreatic secretion is above the basal secretion after 5 hours)” value is listed as 72% and the “Rel. Intensity of effect over 5 hours (total pancreatic juice secretion over 5 hours as compared with control)” value is 5.9.

`O=C(NCCN(CCN(CCNC(=O)c1cccc(O)c1)C(=O)c1cccc(O)c1)C(=O)c1cccc(O)c1)c1cccc(O)c1` [Tetra-(3-hydroxybenzoyl-)triethylene-tetramine]: in test [2], the “Δ% vs. control (percentage by which the pancreatic secretion is above the basal secretion after 5 hours)” value stood at 95% and the “Rel. Intensity of effect over 5 hours (total pancreatic juice secretion over 5 hours as compared with control)” value was 9.1.

Regarding `O=C(NCCO)c1ccc2ccccc2c1O` [1-Hydroxy-2-naphthoic acid-ethanolamide], in test [2], the “Δ% vs. control (percentage by which the pancreatic secretion is above the basal secretion after 5 hours)” value came to 74% and the “Rel. Intensity of effect over 5 hours (total pancreatic juice secretion over 5 hours as compared with control)” value amounted to 8.0.

Regarding Phloretin-3,5-dimethylphenyl phosphate, in test [2], the “Δ% vs. control (percentage by which the pancreatic secretion is above the basal secretion after 5 hours)” value came out at 68% and the “Rel. Intensity of effect over 5 hours (total pancreatic juice secretion over 5 hours as compared with control)” value is given as 3.7.
